Source: paper PMC11302729, “Repurposing Hsp90 inhibitors as antimicrobials targeting two-component systems identifies compounds leading to loss of bacterial membrane integrity” (Microbiology Spectrum, 2024)
≈ marks a conversion by molar mass, not a printed value. Where “and” joins values, the source holds several entries; their conditions need not be identical. Equal entries are not always repeated. Where two headings read alike, the source gives them in different places.

What was measured:
Format in all cases: cell-based
[1] = tested on: Staphylococcus aureus str. Newman; assay: Minimal inhibitory concentration (microdilution) against S. aureus; conditions: for MIC S. aureus: Table ST3
Protocol: (§1) Staphylococcus aureus str. Newman, Enterococcus faecalis vanA (strain E0155), Enterococcus faecium vanA (strain E1654), Escherichia coli ATCC 25922, Escherichia coli D21f2 with a truncated LPS barrier, Escherichia coli JW5503 (ΔtolC) ([49]), Pseudomonas aeruginosa ATCC 27853, and Pasteurella haemolytica ATCC 29701 were grown in Mueller-Hinton Broth (MHB) (Oxoid, Basingstoke, UK) and incubated at 37°C.
(§2) The minimal inhibitory concentration was determined using the microdilution method following the guidelines of the European Committee on Antimicrobial Susceptibility Testing ([50]). Briefly, a series of twofold dilutions in MHB of each compound were made in a 96-well plate, with final concentrations ranging from 50 to 0.39 µg/mL in 100 µL final volume per well. A hundred microliters of 1:100 dilution of an overnight culture of the correspondent bacteria in MHB was added to each well. Plates were incubated for 18 hours at 37°C. MIC was recorded as the lowest concentration where no growth was detected as measured by optical density at 600 nm (OD600) using Spectramax M5 (Molecular Devices LLC, San Jose, CA, USA). […] Wells containing bacteria with or without 1% DMSO and medium alone were included as controls in every plate.

[2] = tested on: Pasteurella haemolytica ATCC 29701; assay: MIC (microdilution) against P. haemolytica; conditions: Mannheimia haemolytica
Protocol: as §1, §2

[3] = tested on: Pseudomonas aeruginosa ATCC 27853; assay: MIC (microdilution) against P. aeruginosa; conditions: Pseudomonas aeruginosa, ATCC27853; Table ST1; read-out: MIC P. aeruginosa
Protocol: as §1, §2

[4] = tested on: Enterococcus faecalis vanA (strain E0155); assay: MIC (microdilution) against E. faecalis; conditions: Enterococcus faecalis, read-out: MIC E. faecalis
Protocol: as §1, §2

in vitro = conditions: human
Protocol: (§3) HEK293 cells and the human hepatocellular carcinoma cells (HepG2) were routinely cultured in 75-cm^2 culture flasks (Corning Incorporated) on high-glucose Dulbecco’s modified Eagle medium (DMEM) containing glutaMax and phenol red (Gibco) supplemented with 1% penicillin/streptomycin (Gibco) and 10% fetal bovine serum (FBS) (Gibco). Cells were maintained at 37°C and 5% CO2.
(§4) Cytotoxicity assays with HEK293 and HepG2 cells were performed in 96-well plates seeded with 5 × 10^4 cells/well and incubated for 24 hours to reach 80%–90% confluency. Exterior wells were filled with only medium to prevent evaporation. Culture medium was removed from the cells, and 100 µL of exposure medium [high-glucose DMEM without phenol red (Gibco)] was added to avoid a potential interaction between FBS components or antibiotics and tested compounds. A twofold dilution series of compounds in exposure medium (range 100–3.2 μg/mL) was made in a separate 96-well plate, and 100 µL of each of these dilutions was added to the assay plates for 24 hours at 37°C in the presence of 5% CO2. Control wells contained cells with DMEM, DMEM + 1% DMSO (vehicle control), or DMEM + 20% DMSO. Wells without cells were also included as negative control. After exposure, the medium was replaced with 100 µL 10% Alamar Blue (Invitrogen) in exposure medium. After 45 min incubation at 37°C and 5% CO2, fluorescence was measured on a Spectramax M5 plate reader at λex = 541 nm, λem = 590 nm. Cell viability compared with the vehicle control was calculated, and inhibition curves for each compound were fitted (non-linear curve fit, four variables, bottom constrained = 0) in Prism 9 (GraphPad Software, San Diego, USA).

HEK293 cells = assay: in vitro; conditions: LC50/MIC (HEK293 / S. aureus)
Protocol: as §3, §4

S. aureus str. Newman = assay: Membrane permeability using SYTOX-Green, flow cytometry; conditions: for % FITC stained bacteria 0.5 xMIC: 0.5× MIC; for % FITC stained bacteria 0.5 xMIC / % FITC stained bacteria 1 xMIC / Loss of membrane integrity / % FITC stained bacteria 2 xMIC: 5 min exposure; for % FITC stained bacteria 1 xMIC / Loss of membrane integrity: 1× MIC; for % FITC stained bacteria 2 xMIC: 2× MIC; for Membrane damage: if considered to cause membrane damage to S. aureus
Protocol: S. aureus str. Newman was grown to exponential phase (OD600 = 0.4) in MHB media. […] Nisin (Sigma-Aldrich) and novobiocin (Sigma-Aldrich) were used as positive and negative controls for membrane permeabilization, and stained and unstained untreated controls were also included in each assay. After exposure, samples were centrifuged at 4,000 r.p.m. for 5 min and resuspended in PBS. Bacteria were dyed by adding the fluorescent nuclear stain SYTOX Green (Molecular Probes, Invitrogen) to a final concentration of 0.5 µM and incubating for 5 min in the dark. Samples were centrifuged again and resuspended with PBS to remove unbound stain. Three hundred microliters of each sample was transferred to a clean well in a 96-well clear-bottom plate (Corning Incorporated). Fluorescence was measured in CytoFLEX flow cytometer (Beckman Coulter, Brea, CA, USA) using the green (FITC) channel with the excitation wavelength at 488 nm. Overlay histograms were created with CytExpert Software (Beckman Coulter, Brea, CA, USA).

[5] = tested on: Escherichia coli JW5503 (ΔtolC); assay: MIC (microdilution) against E. coli JW5503; conditions: Escherichia coli, read-out: MIC E. coli JW5503
Text: (§5) We also tested the inhibitory activity of compounds in two different E. coli mutants: (i) E. coli JW5503 that lacks TolC efflux pumps and (ii) E. coli D21f2 that has a defective LPS inner core increasing permeability of the outer membrane. E. coli D21f2 has a slightly higher susceptibility to DPP compounds than E. coli ATCC25922.
as §1, §2

[6] = tested on: Enterococcus faecium vanA (strain E1654); assay: MIC (microdilution) against E. faecium; conditions: Enterococcus faecium, read-out: MIC E. faecium
Protocol: as §1, §2

[7] = tested on: Escherichia coli ATCC 25922; assay: MIC (microdilution) against E. coli; conditions: Escherichia coli, ATCC25922; Table ST1; read-out: MIC E. coli
Protocol: as §1, §2

sheep red blood cells = assay: Haemolysis assay; conditions: if considered to cause haemolysis to red blood cells
Protocol: The hemolysis assay was adapted from the study by Evans et al. ([65]). Briefly, sheep RBC 10% washed pooled cells in PBS (Rockland Immunochemicals, Limerick, PA, USA) were diluted 1:5 to give a final concentration of 2% RBCs in PBS. […] A non-treated control, 1% DMSO (vehicle control), and complete cell lysis control (Triton-X 2%) were included in each assay. After exposure samples were centrifuged at 4°C at 1,000 g for 15 min and 100 µL of supernatant transferred to a clean well in a 96-well, clear, flat-bottom plate (Corning Incorporated). Released hemoglobin was measured by absorption at 540 nm using a Spectramax M5 plate reader. The experiments were performed in quadruplicate. The percentage of hemolysis was calculated as follows:
Hemolysis=A540nm,testcondition−A540nm,DMSOcontrol/A540nm,TritonXControl−A540nm,DMSOcontrol

[8] = tested on: Escherichia coli D21f2 with a truncated LPS barrier; assay: MIC (microdilution) against E. coli D21f2; conditions: read-out: MIC E coli D21f2
Text: as §5, §1, §2

[9] = Staphylococcus aureus, NEWMAN, Fig 2
[10] = Staphylococcus aureus, NEWMAN, Fig 2, value in parentheses
[11] = Table ST3, value in parentheses
[12] = ATCC29701, read-out: MIC P. haemolytica, Table ST1
[13] = ATCC29701, Table ST1, read-out: MIC P. haemolytica

Compound | MIC [1, 9] [µg/mL] | MIC [1, 10] [µM] | MIC S. aureus [1] [µg/mL] | MIC [1, 11] [µM] | MIC [2, 12] [µg/mL] | MIC [3] [µg/mL] | MIC [4] [µg/mL] | CC50 at 24 h (in vitro) | Selectivity Index (HEK293 cells) | % FITC stained bacteria 0.5 xMIC (S. aureus str. Newman) [%] | % FITC stained bacteria 1 xMIC (S. aureus str. Newman) [%] | Loss of membrane integrity (S. aureus str. Newman) | % FITC stained bacteria 2 xMIC (S. aureus str. Newman) [%] | MIC [5] [µg/mL] | MIC [6] [µg/mL] | MIC [7] [µg/mL] | Haemolysis (sheep red blood cells) | MIC [2, 13] [µg/mL] | Membrane damage (S. aureus str. Newman) | MIC [8] [µg/mL]
COc1ccc(-c2c(C(F)(F)F)n[nH]c2-c2ccc(OCc3ccccc3)cc2O)cc1 [DPP-15] | 3.12 | 7.09 | 3.12 (≈ 7.08 µM) | 7.09 | > 250 | > 250 | 1.56 (≈ 3.54 µM) | 9.64 µg/mL and 21.9 µM | 3.10 | 9.29 | 13.68 | did not cause significant loss of membrane integrity | 18.42 | 3.12 (≈ 7.08 µM) | 1.56 (≈ 3.54 µM) | > 250 |  |  |  | 
FC(F)(F)c1n[nH]c(-c2ccccc2)c1-c1ccc(Cl)cc1 [DPP-21] | 1.56 | 4.8 | 1.56 (≈ 4.83 µM) | 4.8 |  | > 250 | 12.5 (≈ 38.7 µM) |  | 4.56 | 31.51 | 35.84 |  | 51.03 | 1.56 (≈ 4.83 µM) | 12.5 (≈ 38.7 µM) | > 250 | YES | 12.5 (≈ 38.7 µM) | YES | > 250
Oc1cc(OCc2ccccc2)ccc1-c1[nH]nc(C(F)(F)F)c1-c1ccccc1 [DPP-4] | 1.56 | 3.8 | 1.56 (≈ 3.8 µM) | 3.80 | 125 (≈ 305 µM) | > 250 | 3.12 (≈ 7.6 µM) | 7.26 µg/mL and 17.7 µM | 4.65 | 7.94 | 14.15 | did not cause significant loss of membrane integrity | 19.78 | 6.25 (≈ 15.2 µM) | 3.12 (≈ 7.6 µM) | > 250 |  |  |  | > 50
Oc1ccccc1-c1[nH]nc(C(F)(F)F)c1-c1ccc(Cl)cc1 [DPP-22] | 1.56 | 4.59 | 1.56 (≈ 4.61 µM) | 4.59 |  | > 250 | 12.5 (≈ 36.9 µM) | 2.89 µg/mL and 8.5 µM | 1.85 |  |  |  |  | 1.56 (≈ 4.61 µM) | 12.5 (≈ 36.9 µM) | > 250 | YES | 12.5 (≈ 36.9 µM) |  | 25 (≈ 73.8 µM)
CCOc1ccc(-c2[nH]nc(C(F)(F)F)c2-c2ccccc2)c(O)c1 [DPP-3] | 6.25 | 17.9 | 6.25 (≈ 17.9 µM) | 17.86 | 50 (≈ 144 µM) | > 250 | > 250 | 25.6 µg/mL and 76.5 µM | 4.1 | 35.78 | 49.41 |  | 58.28 | 1.56 (≈ 4.48 µM) | > 250 | > 250 | YES |  | YES | 
